Measured values as given in article PMC7914117, “Ginkgolic acid and anacardic acid are specific covalent inhibitors of SARS-CoV-2 cysteine proteases” (Cell & Bioscience, 2021).

Columns and labels:
[1] = Cell-Titer Glo cytotoxicity assay; format: cell-based; settings: African green monkey, Vero-E6 cells; for CC50 at 48 h: mean ± SD, triplicate; for viability at 48 h, 20 µM: at 20 µM
Protocol: (§1) To estimate the cytotoxicity of test compounds on VERO-E6 cells, Cell-Titer Glo® luminescent cell viability assay (Promega) was performed according to the manufacturer’s instruction. […] The half of the cytotoxic concentration (CC50) values were calculated from the percentages of cells whose viability was inhibited by test compounds at various concentrations.

Vero-E6 cells = assay: Cell-Titer Glo cytotoxicity assay; format: cell-based; settings: 48 h, mean ± SD, triplicate
Protocol: as §1

SARS-CoV-2 3CL^pro = SARS-CoV-2 3CL^pro (Severe acute respiratory syndrome coronavirus 2, UniProt P0DTD1); assay: SARS-CoV-2 3CLpro FRET enzymatic inhibition assay; format: biochemical; settings: for IC50: 250 nM 3CLpro, 4 mM DTT, 30 min pre-incubation, 50 µM substrate, mean ± SD, triplicate, read-out: IC50 against 3CL^pro enzymatic activity; for IC50 shift upon addition of reducing reagent: 3CLpro assay in absence or presence of 4 mM DTT; for sensitivity of 3CLpro compared to PLpro: ratio of IC50 values, PLpro vs 3CLpro
Protocol: The SARS-CoV-2 3CL^pro was prokaryotic expressed and purified as previously described with slight modification. For enzymatic inhibition assay, the recombinant 3CL^pro (250 nM at a final concentration) was incubated with increasing concentrations of each compound in 90 µL reaction buffer (50 mM Tris–HCl, pH 7.3, 1 mM EDTA, 4mM DTT) for 30 min [6]. The reaction was initiated by adding 10 µL FRET-based peptidic substrate (Dabcyl-KTSAVLQ/SGFRKME-Edans) with a final concentration of 50 µM. The fluorescence signal was immediately measured every 20 s for 30 min using a Bio-Tek Synergy4 plate reader with filters for excitation at 336/20 nm and emission at 490/20 nm. The V0 of reactions were calculated to indicate the enzymatic activities. Three independent experiments were performed and IC50 curves were analyzed using four-parameter logistic regression in GraphPad Prism software.
For mechanism of action study, various concentrations of ginkgolic acid were mixed and incubated with increasing concentrations of 3CL^pro (100–1000 nM) in 90 µL reaction buffer for 30 min. Reactions were initiated by adding 10 µL substrate with a final concentration of 50 µM. At each concentration of ginkgolic acid, the V0s were plotted with the concentrations of 3CL^pro, and the data was fitted using linear regression analysis in GraphPad Prism software.

SARS-CoV-2 PL^pro = SARS-CoV-2 PL^pro (Severe acute respiratory syndrome coronavirus 2, UniProt P0DTD1); assay: SARS-CoV-2 PLpro fluorescence-based enzymatic inhibition assay (Z-RLRGG-AMC substrate); format: biochemical; settings: for IC50: mean ± SD, triplicate, read-out: IC50 against PL^pro enzymatic activity; for inhibition at 20 µM: read-out: inhibition against PL^pro in high-throughput screen
[2] = 100 nM PLpro, 4 mM DTT, 30 min pre-incubation, 30 µM substrate
[3] = compounds at 20 µM, 100 nM PLpro, 30 min pre-incubation, 4 mM DTT, 30 µM substrate, RFU at 10 min

SMILES	CC50 at 48 h [1]	viability at 48 h, 20 µM [1]	CC10 (Vero-E6 cells)	IC50 (SARS-CoV-2 3CL^pro)	IC50 shift upon addition of reducing reagent (SARS-CoV-2 3CL^pro)	sensitivity of 3CLpro compared to PLpro (SARS-CoV-2 3CL^pro)	IC50 (SARS-CoV-2 PL^pro; [2])	inhibition at 20 µM (SARS-CoV-2 PL^pro; [3])	type of enzymatic inhibition of 3CL^pro (SARS-CoV-2 3CL^pro; V0 vs enzyme concentration (100–1000 nM) at different inhibitor concentrations)	type of enzymatic inhibition of PL^pro (SARS-CoV-2 PL^pro; V0 vs enzyme concentration (25–150 nM) at different inhibitor concentrations)	inhibition against PL^pro in high-throughput screen (SARS-CoV-2 PL^pro; [3])
CCCCCCCCCCCCCCCc1cccc(O)c1C(=O)O [anacardic acid]	25.5 ± 0.69 µM	> 90%	22.27 ± 0.26 µM	2.07 ± 0.35 µM	no significant IC50 shift	about 10 times	17.1 ± 1.3 µM	> 50%			
CCCCCC/C=C\CCCCCCCc1cccc(O)c1C(=O)O [ginkgolic acid]	27.9 ± 0.77 µM	> 90%	21.38 ± 0.52 µM	1.79 ± 0.58 µM	no significant IC50 shift	about 10 times	16.3 ± 0.64 µM	> 50%	irreversible inhibitor	irreversible inhibitor	
C/C1=C2/[N-][C@H]([C@H](CC(N)=O)[C@@]2(C)CCC(=O)NC[C@@H](C)OP(=O)([O-])O[C@H]2[C@@H](O)[C@@H](n3cnc4cc(C)c(C)cc43)O[C@@H]2CO)[C@]2(C)N=C(/C(C)=C3N=C(/C=C4N=C1[C@@H](CCC(N)=O)C\4(C)C)[C@@H](CCC(N)=O)[C@]\3(C)CC(N)=O)[C@@H](CCC(N)=O)[C@]2(C)CC(N)=O.[CH3-].[Co+3] [methylcobalamin, reference compound]											more than 50%
